Assay results as given in ChEMBL document CHEMBL5303711, “ECBD screening data for assay EOS300108” (2023).
Where a name gives a salt, the structure may show the parent alone. Calls of active or inactive are those of the source. How the calls were made is not given here.

Assay: Cytotoxicity activity against human HepG2 cells assessed by CellTiter-Glo luminescent cell viability assay.
Assay type: toxicity, cell-based
Parameters: assay stage confirmatory assay, source tissue liver
Settings: HepG2 cells, read-out: IC50 relative

| Compound | CC50 |
| --- | --- |
| N#Cc1ccc2[nH]cc(CCCCN3CCN(c4ccc5oc(C(N)=O)cc5c4)CC3)c2c1 [VILAZODONE] | 6.1 µM (active) |
| O=C(Nc1nc(-c2ccco2)cs1)c1cccnc1N1CCOCC1 | 1.6 µM (active) |
| COc1cccc(N2CCN(C(=O)C3CCN(c4nc5cccnc5n(C)c4=O)CC3)CC2)c1 | 4.4 µM (active) |
| CCOc1cc2ncc(C#N)c(Nc3ccc(F)c(Cl)c3)c2cc1NC(=O)/C=C/CN(C)C [PELITINIB] | 1.8 µM (active) |
| CCCCCCCCC(=O)N[C@H](CN1CCCC1)[C@H](O)c1ccc2c(c1)OCCO2 | 5.1 µM (active) |
| COc1ccc(-c2ccc(CNCCCN3CCOCC3)o2)cc1Cl | 12.7 µM (inactive) |
| Cn1c(N2CCN(Cc3ccccc3)CC2)nc2c1c(=O)n(Cc1ccccc1)c(=O)n2C | 13.4 µM (inactive) |
| Cc1c(CN2CCN(C(=O)[C@H](C)O)CC2)sc2c(N3CCOCC3)nc(-c3cnc(N)nc3)nc12 [APITOLISIB] | 1.5 µM (active) |
| CCN(CC)CCCNC(=O)C1CCCN(c2ncc(-c3ccc(F)cc3)cn2)C1 (stereo not given) | 10.9 µM (active) |
| CC(Cc1ccc(O)c(O)c1)C(C)Cc1ccc(O)c(O)c1 (stereo not given) [NORDIHYDROGUAIARETIC ACID] | 10.3 µM (inactive) |
| Cc1cccnc1N1CCN(c2cc([C@H]3C[C@@H](N)C3)nc(N)n2)CC1 | 11.1 µM (active) |
| COc1cc(N2CCC(O)CC2)ccc1Nc1cc(Nc2ccccc2S(=O)(=O)C(C)C)c2cc[nH]c2n1 | 12.9 µM (active) |
| O=C(Nc1ccccc1-c1cn2c(CN3CCNCC3)csc2n1)c1cnc2ccccc2n1 | 1.6 µM (active) |
| C[C@H](Nc1nc(N)nc2ccccc12)c1ccccc1 | 3.9 µM (active) |
| NCCn1cc(C(=O)N2CCN(Cc3ccc(Br)s3)CC2)nn1 | 7.4 µM (active) |
| O=c1cc(O)c2c(-c3ccc(F)cc3)csc2[nH]1 | 2.7 µM (active) |
| N#Cc1c(Oc2ccc(F)c(NC(=O)Cc3cccc(C(F)(F)F)c3)c2)ccc2nc(NC(=O)C3CC3)sc12 | 0.4 µM (active) |
| O=C(Nc1ccnc2ccnn12)c1cc2ccccc2c(=O)[nH]1 | 0.1 µM (active) |
| COc1cccc2c(NCc3ccccc3)nc(-n3c(N)nc4ccccc43)nc12 | 9.6 µM (active) |
| NC(=O)c1cnc(NC(=O)c2cccc(S(=O)(=O)N3CCN(c4ccccc4)CC3)c2)s1 | 37.1 µM (inactive) |
| NCC(c1ccc(Cl)cc1)C1CCCC1 (stereo not given) | 8 µM (active) |
| COc1ccc(-n2ccc(C(=O)Nc3cc(Cl)c(=O)n(C)c3)n2)cc1 | 7.7 µM (active) |
| CC1(C)CC[C@]2(C(=O)O)CC[C@]3(C)[C@H](C(=O)C=C4[C@@]5(C)C=C(C#N)C(=O)C(C)(C)[C@@H]5CC[C@]43C)[C@@H]2C1 [BARDOXOLONE] | 3.7 µM (active) |

| Compound | CC50 |
| --- | --- |
| COc1ccc2[nH]c(C(=O)c3ccccc3)cc2c1 | 0.2 µM (inactive) |
| O=S1(=O)C[C@H](NC2CCCCC2)[C@@H](S(=O)(=O)c2ccc(Cl)cc2)C1 | 17 µM (active) |
| CN1C/C=C\CCOc2cccc(c2)-c2ccnc(n2)Nc2cccc(c2)C1 | < 0.1 µM (active) |
| CC1(C)N=C(N)N=C(N)N1c1ccc(Br)cc1 | 9.1 µM (inactive) |
| COc1cc2c(NC3CCN(C4CCCCC4)CC3)nc(N3CCCN(C(C)C)CC3)nc2cc1OCCCN1CCCCC1 | 6.6 µM (active) |
| CC1CCN(S(=O)(=O)c2ccc(-c3nc(C#N)c(NCCCN(C)C)o3)cc2)CC1 | 5.8 µM (active) |
| Cc1c(C(=O)Nc2ncccc2O)oc2ccccc12 | 1.7 µM (active) |
| COc1ccc(NC(=O)c2nc(S(C)(=O)=O)ncc2Br)cc1 | 1.9 µM (active) |
| Cc1ccc(N2N=C(C(=O)N3CCCC3)S(=O)(=O)c3cccnc32)cc1 | 3.3 µM (active) |
| Cc1cccc2nc(C(=O)Nc3cccnc3-n3cccn3)cn12 | 7 µM (active) |
| O=C(c1ccoc1)N1CCCN(Cc2ccc3c(c2)OCO3)c2ccccc21 | 20.4 µM (inactive) |
| C#CC(=O)NCCNc1nc(C)nc(C)c1Br | 0.8 µM (active) |
| CN(Cc1cnc2nc(N)nc(N)c2n1)c1ccc(C(=O)N[C@@H](CCC(=O)O)C(=O)O)cc1 [METHOTREXATE] | < 0.1 µM (active) |
| CCNc1cc2[o+]c3cc(NCC)c(C)cc3c(-c3ccccc3C(=O)OCC)c2cc1C | 1 µM (active) |
| CC(C)(C)Cn1c(N)nc2ccc(-c3[nH]c(C(C)(C)C)nc3-c3ccc(F)cc3)nc21 [RALIMETINIB MESYLATE] | 13.2 µM (active) |
| CCS(=O)(=O)N1CCc2ccc(NC(=O)Nc3cccc(C#N)c3)cc21 | 5.2 µM (active) |
| O=C(Nc1nc(-c2ccccn2)cs1)c1ccc(-n2cncn2)cc1 | 1.5 µM (active) |
| O=C(Nc1ccc2[nH]nc(-c3ccncc3)c2c1)[C@@H]1CCN(CC(=O)N2CCN(c3ccc(-c4ncccn4)cc3)CC2)C1 | 0.1 µM (active) |
| Cc1ccc(NC(=O)CCN(C)CC2CCN(C)C2(C)C)cc1F (stereo not given) | 9.7 µM (active) |
| COc1ccc(-c2noc(N3CCC(C(=O)NCCCN4CCC(C)CC4)CC3)n2)cc1 | 19.2 µM (inactive) |
| CC1CCN(CC(O)COc2ccccc2C(C)(C)C)CC1 (stereo not given) | 9.6 µM (active) |
| COc1cc2c(Oc3ccc4[nH]c(C)cc4c3F)ncnc2cc1OCCCN1CCCC1 [CEDIRANIB] | 2.5 µM (active) |
| CC(NC(=O)N1CCCN(C)C2(CCNCC2)C1)c1ccccc1Cl (stereo not given) | 4.3 µM (active) |

| Compound | CC50 |
| --- | --- |
| CCCc1cc(C)[nH]c(=O)c1CNC(=O)c1cc(-c2ccc(N3CCN(C(C)C)CC3)nc2)cc2c1cnn2C(C)C | 2.6 µM (active) |
| NC(=S)N/N=C/c1ncccc1N [TRIAPINE] | 5.3 µM (active) |
| Cc1ccc(NC(=O)NC[C@@H](C(C)C)N2CCN(C)CC2)cc1Cl | 11.3 µM (active) |
| COc1ccc(NC(=O)Cn2sc3ccccc3c2=O)cc1OC | 12.2 µM (active) |
| CCN1CCN(CCOc2ccc3ccccc3c2Cl)CC1 | 8 µM (active) |
| Cc1ccc(-c2cccc(CN3[C@@H]4CC[C@H]3[C@H]3CNC[C@H]34)c2)o1 | 8.8 µM (active) |
| O=C(Cn1ncc(Cl)c(Cl)c1=O)N1CCC[C@H]1c1cccs1 | 4.2 µM (active) |
| CCOC(=O)N1c2ccc(C(F)(F)F)cc2[C@@H](N(Cc2cc(C(F)(F)F)cc(C(F)(F)F)c2)C(=O)OC)C[C@H]1CC [TORCETRAPIB] | 6.4 µM (active) |
| CNc1nc2c(=O)[nH]c(N)nc2n1[C@@H]1O[C@H](CO)[C@@H](O)[C@H]1O | 11.4 µM (active) |
| CC[C@H](C)n1cc(C)c2c(C(=O)NCc3c(C)cc(C)[nH]c3=O)cc(-c3ccc(N4CCNCC4)nc3)cc21 [GSK2816126] | 4.9 µM (active) |
| O=c1[nH]ccc2c(Br)cccc12 | 8.3 µM (inactive) |
| NCCCCNS(=O)(=O)c1ccc2c(Cl)cccc2c1 | 13 µM (active) |
| Cc1ccc(S(=O)(=O)N2CCN(c3ccc(Nc4ccncc4)nn3)CC2)cc1 | 10.4 µM (active) |
| CN[C@H]1CCCN(C(=O)c2ccc(CN)cc2)C1 | 14.3 µM (inactive) |
| CNc1ncc2cc(-c3ccc(-c4cccc(C)n4)cc3Cl)c(=O)n(C[C@H]3OC[C@H](N)CO3)c2n1 | 4.5 µM (active) |
| CCN1CCN(C(=O)Cc2ccc(Nc3ncc(F)c(Nc4ccc(C(=O)Nc5ccccc5Cl)cc4)n3)cc2)CC1 | 1.8 µM (active) |
| CN(CCN1CCC(OC(=O)Nc2ccccc2-c2ccccc2)CC1)C(=O)c1ccc(CN2CCC(C(N)=O)CC2)cc1 [REVEFENACIN] | 13.2 µM (active) |
| COc1cc(F)c(F)c(Nc2ccc(I)cc2F)c1NS(=O)(=O)C1(C[C@H](O)CO)CC1 [REFAMETINIB] | 0.1 µM (active) |
| CN(C)c1ccc(C(=C2C=CC(=[N+](C)C)C=C2)c2ccc(N(C)C)cc2)cc1 [GENTIAN VIOLET] | 14.6 µM (inactive) |
| CNC(=O)c1ccccc1Nc1cc(Nc2ccc(N3CCOCC3)cc2OC)ncc1C(F)(F)F [VS-4718] | 3.7 µM (active) |
| CCN1CCS/C1=C\C=C\C1=[N+](CC)CCS1 | 6.3 µM (active) |
| COc1cccc(-c2noc(-c3ccc(N4CCN(C(C)C)CC4)nc3)n2)c1OC | 13.1 µM (active) |
| Cc1oc(-c2ccccc2)nc1C(=O)Nc1ncccc1O | 9.6 µM (inactive) |

| Compound | CC50 |
| --- | --- |
| OCC1CCCN(CCNCc2ccc(Cl)c(Cl)c2)C1 (stereo not given) | 5.7 µM (active) |
| Cn1cnc2c(F)c(Nc3ccc(Br)cc3F)c(C(=O)NOCCO)cc21 [BINIMETINIB] | < 0.1 µM (active) |
| Cc1ccc(NC(=O)Cc2ccc(-n3cccn3)cc2)nc1 | 0.4 µM (active) |
| CN1CCCN(C(=O)Nc2ccc3c4c(cccc24)CC3)CC1 | 9.4 µM (active) |
| Cc1n[nH]c(C)c1S(=O)(=O)N1CCCC(C(=O)Nc2ccc(Br)cc2)C1 (stereo not given) | 26.3 µM (inactive) |
| O=C(Nc1ccc(O[C@H]2CCOC2)cc1)c1cn2ccnc2s1 | 1.8 µM (active) |
| COc1cc2nc(N3CCCN(C)CC3)nc(NC3CCN(Cc4ccccc4)CC3)c2cc1OC | 0.9 µM (active) |
| CC1CCC/C=C\C2CC(O)CC2C(O)/C=C\C(=O)O1 (stereo not given) | < 0.1 µM (active) |
| CC(C)N(CCC(=O)c1ccc2ccccc2c1)Cc1ccccc1 | 12.9 µM (active) |
| C=CC(=O)Nc1cccc(Oc2nc(Nc3ccc(N4CCN(C)CC4)c(F)c3)nc3[nH]ccc23)c1 | 1.9 µM (active) |
| CN(C)CC1(O)CCCN(Cc2cc3ccccc3n2C)C1 (stereo not given) | 11.8 µM (active) |
| COc1cc(C(N)=O)ccc1NC(=O)[C@@H]1N[C@@H](CC(C)(C)C)[C@@]2(C(=O)Nc3cc(Cl)ccc32)[C@H]1c1cccc(Cl)c1F | 5.3 µM (inactive) |
| C[C@H](O)CN1CCC(CNCc2cccc(C(F)(F)F)c2)CC1 | 15.5 µM (inactive) |
| CCC(C)NC(=O)N1CC(Oc2ccc(-c3noc(-c4cccnc4)n3)cc2)C1 (stereo not given) | 4.5 µM (active) |
| COc1cccc(S(=O)(=O)N2CCC3(CC2)CC(CCOc2ccncc2)CCO3)c1 (stereo not given) | 13.2 µM (active) |
| Cc1[nH]c2ccccc2c1CN1CCN(c2ccccn2)CC1 | 12.9 µM (inactive) |
| c1ccc2c(c1)sc1ncnc(NC[C@H]3CN(C4CC4)CCO3)c12 | 11.8 µM (active) |
| CCn1cc(CC(=O)Nc2ccc(Oc3ccccc3)cn2)cn1 | 5.3 µM (active) |
| CCCNC(=O)N1CC(Oc2ccc(-c3noc(-c4cccnc4)n3)cc2)C1 | 6 µM (active) |
| O=S(=O)(C[C@H]1CCOC1)NC1CCN(Cc2ccc(Cl)cc2)CC1 | 12.9 µM (active) |
| COc1cc2c(Nc3ccc(Br)cc3F)ncnc2cc1OCC1CCN(C)CC1 [VANDETANIB] | 2.6 µM (active) |
